Source: patent US9315490B2, “2,5-substituted pyrimidines” (Grünenthal GmbH, priority 2014, dated 2016)

Assays:
[1] = biological target: T1, human PDE4B1 (Homo sapiens, UniProt Q07343); assay: cAMP HTRF assay to determine the activity of hPDE4B1; assay type: biochemical; details: inhibition of PDE4B at a test concentration of 1 μM
T1 construct: host or cells: Sf9 cells
How it was run: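 […], using HTRF quantitation of residual cAMP after 1 mM IBMX stop and 60 min detection. Enzyme was Sf9-expressed human PDE4B1 incubated 30 min at room temperature with 40 nM final cAMP at pH 7.8.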

T1 sequence (Q07343 whole entry): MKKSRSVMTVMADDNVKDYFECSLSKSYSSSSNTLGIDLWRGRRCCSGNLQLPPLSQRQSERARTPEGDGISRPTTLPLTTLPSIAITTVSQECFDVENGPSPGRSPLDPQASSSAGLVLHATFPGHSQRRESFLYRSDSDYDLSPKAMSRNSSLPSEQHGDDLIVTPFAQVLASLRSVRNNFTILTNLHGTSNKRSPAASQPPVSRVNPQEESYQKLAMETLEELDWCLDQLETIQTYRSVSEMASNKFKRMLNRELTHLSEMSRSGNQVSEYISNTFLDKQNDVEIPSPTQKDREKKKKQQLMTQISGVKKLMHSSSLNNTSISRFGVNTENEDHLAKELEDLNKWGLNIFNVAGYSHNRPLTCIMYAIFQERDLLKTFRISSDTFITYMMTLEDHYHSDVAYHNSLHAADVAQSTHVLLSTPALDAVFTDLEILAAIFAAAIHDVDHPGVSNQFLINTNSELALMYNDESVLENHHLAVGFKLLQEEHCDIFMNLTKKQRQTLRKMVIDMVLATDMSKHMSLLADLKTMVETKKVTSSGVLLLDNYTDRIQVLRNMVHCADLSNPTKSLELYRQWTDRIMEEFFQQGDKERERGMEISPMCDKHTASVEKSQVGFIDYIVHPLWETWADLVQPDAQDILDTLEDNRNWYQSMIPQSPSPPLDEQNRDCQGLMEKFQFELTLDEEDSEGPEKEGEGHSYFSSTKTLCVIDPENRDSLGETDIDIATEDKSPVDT

SMILES | inhibition at 1 µM [1] | melting point
C[S+]([O-])c1cn(-c2ncc(-c3cc(C#N)ccc3F)cn2)c2cc(C(=O)N3CCOCC3)ccc12 (centres unmarked) [Example 2, 4-Fluoro-3-(2-(3-(methylsulfinyl)-6-(morpholine-4-carbonyl)-1H-indol-1yl)pyrimidin-5-yl)benzonitrile] | 98% | 262 to 266 °C
C[S+]([O-])c1cn(-c2ncc(-c3ccccc3Cl)cn2)c2cc(C(=O)N3CCOCC3)ccc12 (centres unmarked) [Example 3, (1-(5-(2-Chlorophenyl)pyrimidin-2-yl)-3-(methylsulfinyl)-1H-indol-6-yl)(morpholino) methanone] | 98% | 226 to 230 °C
C[S+]([O-])c1cn(-c2ncc(-c3ccccc3)cn2)c2cc(C(=O)N3CCOCC3)ccc12 (centres unmarked) [Example 4, (3-(Methylsulfinyl)-1-(5-phenylpyrimidin-2-yl)-1H-indol-6-yl)(morpholino) methanone] | 82% | 239 to 242 °C
CS(=O)(=O)c1cn(-c2ncc(-c3ccc(F)cc3F)cn2)c2cc(C(=O)N3CCOCC3)ccc12 [Example 6, (1-(5-(2,4-Difluorophenyl)pyrimidin-2-yl)-3-(methylsulfonyl)-1H-indol-6-yl)(morpholino)methanone] | 88% | 247 to 252 °C
CS(=O)(=O)c1cn(-c2ncc(-c3ccc(C(N)=O)cc3F)cn2)c2cc(C(=O)N3CCOCC3)ccc12 [Example 7, 3-Fluoro-4-(2-(3-(methylsulfonyl)-6-(morpholine-4-carbonyl)-1H-indol-1-yl)pyrimidin-5-yl)benzamide] | 88% | 263 to 266 °C
CS(=O)(=O)c1cn(-c2ncc(-c3ccccc3C#N)cn2)c2cc(C(=O)N3CCOCC3)ccc12 [Example 8, 2-(2-(3-(Methylsulfonyl)-6-(morpholine-4-carbonyl)-1H-indol-1-yl)pyrimidin-5-yl)benzonitrile] | 50% | 265 to 269 °C
CS(=O)(=O)c1cn(-c2ncc(-c3ccccc3Cl)cn2)c2cc(C(=O)N3CCOCC3)ccc12 [Example 9, (1-(5-(2-Chlorophenyl)pyrimidin-2-yl)-3-(methylsulfonyl)-1H-indol-6-yl)(morpholino)methanone] | 78% | 235 to 239 °C
CS(=O)(=O)c1cn(-c2ncc(-c3ccccc3)cn2)c2cc(C(=O)N3CCOCC3)ccc12 [Example 10, (3-(Methylsulfonyl)-1-(5-phenylpyrimidin-2-yl)-1H-indol-6-yl)(morpholino) methanone] | 74% | 270 to 274 °C
CS(=O)(=O)c1cn(-c2ncc(-c3ccccc3F)cn2)c2cc(C(=O)N3CCOCC3)ccc12 [Example 11, (1-(5-(2-Fluorophenyl)pyrimidin-2-yl)-3-(methylsulfonyl)-1H-indol-6-yl)(morpholino)methanone] | 109% | 267 to 270 °C
C[S+]([O-])c1cn(-c2ncc(-c3ccccc3)cn2)c2cc(C(=O)N3CCNCC3)ccc12 (centres unmarked) [Example 12, (3-(Methylsulfinyl)-1-(5-phenylpyrimidin-2-yl)-1H-indol-6-yl)(piperazin-1-yl)methanone] | 33% | 193 to 197 °C
C[S+]([O-])c1cn(-c2ncc(-c3ccccc3F)cn2)c2cc(C(=O)N3CCNCC3)ccc12 (centres unmarked) [Example 13, (1-(5-(2-Fluorophenyl)pyrimidin-2-yl)-3-(methylsulfinyl)-1H-indol-6-yl)(piperazin-1-yl)methanone] | 51% | 199 to 203 °C
C[S+]([O-])c1cn(-c2ncc(-c3ccc(F)cc3F)cn2)c2cc(C(=O)N3CCNCC3)ccc12 (centres unmarked) [Example 14, (1-(5-(2,4-Difluorophenyl)pyrimidin-2-yl)-3-(methylsulfinyl)-1H-indol-6-yl)(piperazin-1-yl)methanone] | 38% | 198 to 201 °C

Second part, the compound after the results:

inhibition at 1 µM [1] | melting point | SMILES
41% | 159 to 163 °C | C[S+]([O-])c1cn(-c2ncc(-c3cc(C#N)ccc3F)cn2)c2cc(C(=O)N3CCNCC3)ccc12 (centres unmarked) [Example 17, 4-Fluoro-3-(2-(3-(methylsulfinyl)-6-(piperazine-1-carbonyl)-1H-indol-1-yl)pyrimidin-5-yl)benzonitrile]
91% | 230 to 233 °C | C[S+]([O-])c1cn(-c2ncc(-c3ccc(F)cc3F)cn2)c2cc(C(=O)N3CCOCC3)ccc12 (centres unmarked) [Example 18, (1-(5-(2,4-Difluorophenyl)pyrimidin-2-yl)-3-(methylsulfinyl)-1H-indol-6-yl)(morpholino)methanone]
94% | 202 to 206 °C | C[S+]([O-])c1cn(-c2ncc(-c3ccc(C(N)=O)cc3F)cn2)c2cc(C(=O)N3CCOCC3)ccc12 (centres unmarked) [Example 19, 3-Fluoro-4-(2-(3-(methylsulfinyl)-6-(morpholine-4-carbonyl)-1H-indol-1-yl)pyrimidin-5-yl)benzamide]
74% | 277 to 281 °C | C[S+]([O-])c1cn(-c2ncc(-c3ccccc3C#N)cn2)c2cc(C(=O)N3CCOCC3)ccc12 (centres unmarked) [Example 20, 2-(2-(3-(Methylsulfinyl)-6-(morpholine-4-carbonyl)-1H-indol-1-yl)pyrimidin-5-yl)benzonitrile]
41% | 206 to 210 °C | CS(=O)(=O)c1cn(-c2ncc(-c3ccccc3F)cn2)c2cc(C(=O)N3CCNCC3)ccc12 [Example 24, (1-(5-(2-Fluorophenyl)pyrimidin-2-yl)-3-(methylsulfonyl)-1H-indol-6-yl)(piperazin-1-yl)methanone]
41% | 279 to 283 °C | CS(=O)(=O)c1cn(-c2ncc(-c3cc(C#N)ccc3F)cn2)c2cc(C(=O)N3CCNCC3)ccc12 [Example 26, 4-Fluoro-3-(2-(3-(methylsulfonyl)-6-(piperazine-1-carbonyl)-1H-indol-1-yl)pyrimidin-5-yl)benzonitrile]
79% | 190 to 194 °C | O=C(c1ccc2c(CO)cn(-c3ncc(-c4ccccc4F)cn3)c2c1)N1CCOCC1 [Example 27, (1-(5-(2-Fluorophenyl)pyrimidin-2-yl)-3-(hydroxymethyl)-1H-indol-6-yl)(morpholino)methanone]
57% | 122 to 126 °C | CC[S+]([O-])c1cn(-c2ncc(-c3ccccc3F)cn2)c2cc(C(=O)N3CCOCC3)ccc12 (centres unmarked) [Example 29, (3-(Ethylsulfinyl)-1-(5-(2-fluorophenyl)pyrimidin-2-yl)-1H-indol-6-yl)(morpholino)methanone]
115% | 216 to 220 °C | COc1ccnc(-c2cnc(-n3cc([S+](C)[O-])c4ccc(C(=O)N5CCOCC5)cc43)nc2)c1 (centres unmarked) [Example 141, (1-(5-(4-Methoxypyridin-2-yl)pyrimidin-2-yl)-3-(methylsulfinyl)-1H-indol-6-yl)(morpholino)methanone]
65% | 262 to 265 °C | C[S+]([O-])c1cn(-c2ncc(-c3ccnc(O)c3)cn2)c2cc(C(=O)N3CCOCC3)ccc12 (centres unmarked) [Example 143, (1-(5-(2-Hydroxypyridin-4-yl)pyrimidin-2-yl)-3-(methylsulfinyl)-1H-indol-6-yl)(morpholino)methanone]
